{"source": "patent US11325904B2", "about": "“Tropinol esters and related compounds to promote normal processing of APP” (BUCK INSTITUTE FOR RESEARCH ON AGING, priority 2011, dated 2022)", "system": "ectodomain of APP695 (MBP-eAPP230-624, eAPP230-624, TRX-eAPP575-624)", "experiment": "Surface plasmon resonance (Biacore T100) binding to APP ectodomain fragments", "experimental": "We used surface plasmon resonance to assess binding of compound 14 to the APP ectodomain (eAPP) fragments was done using a Biacore T100. Biotinylated TRX-eAPP575-624 and other eAPP fragments were immobilized onto strepavidin-coated sensor CM5 chip.\nSurface plasmon resonance data was obtained with a Biacore T100 for 0-50 μM compound 14 flowed at 1 μl per min in 1% DMSO, 20 mM sodium phosphate, 125 mM sodium chloride pH 7.4 over a CM5 chip cross-linked with proteins containing fragments of the ectodomain of APP695. The three proteins were MBP-eAPP230-624—a fusion protein containing maltose binding protein and residues 230-624 of the ectodomain of APP (90-kDa), eAPP230-624—a protein that contains only residues 230-624 (45-kDa), and TRX-eAPP575-624—a fusion protein containing thioredoxin and residues 575-624 of the ectodomain (20-kDa). The proteins were produced as described in Libeu et al., (2011) J. Alzheimer's Dis., 25(3): 547-566. […] FIG. 11 compares the normalized response for the all three proteins. Comparison of the normalized curves between the proteins was done with PRISM (GraphPad Inc).", "data": [{"smiles": "Cc1nnc(C(=O)O[C@H]2C[C@H]3CC[C@@H](C2)N3C)o1", "note": "[Compound 14]", "values": [{"measurement": "binding to the ectodomain of APP", "setting": "0-50 μM compound, 1% DMSO, 20 mM sodium phosphate, 125 mM sodium chloride pH 7.4, CM5 chip", "value": "has affinity for APP and can directly bind to the ectodomain of APP"}, {"measurement": "normalized response curves compared between the eAPP fragments", "setting": "MBP-eAPP230-624 vs eAPP230-624 vs TRX-eAPP575-624, comparison with PRISM", "value": "not significantly different"}]}]}
